Laboratory results taken from ChEMBL document CHEMBL4049409, “Structure-based discovery of LpxC inhibitors” (Bioorg Med Chem Lett, 2017).
pIC50: −log10 of the molar value. Converted amounts (≈) assume the structure as drawn.

Experiments:
[1] = target: T1, UDP-3-O-acyl-N-acetylglucosamine deacetylase (Escherichia coli K-12, UniProt P0A725); experiment: Inhibition of LpxC in Escherichia coli isolate 35 ATCC 25922; design: species or system Escherichia coli ATCC 25922
T1 sequence (P0A725 whole entry): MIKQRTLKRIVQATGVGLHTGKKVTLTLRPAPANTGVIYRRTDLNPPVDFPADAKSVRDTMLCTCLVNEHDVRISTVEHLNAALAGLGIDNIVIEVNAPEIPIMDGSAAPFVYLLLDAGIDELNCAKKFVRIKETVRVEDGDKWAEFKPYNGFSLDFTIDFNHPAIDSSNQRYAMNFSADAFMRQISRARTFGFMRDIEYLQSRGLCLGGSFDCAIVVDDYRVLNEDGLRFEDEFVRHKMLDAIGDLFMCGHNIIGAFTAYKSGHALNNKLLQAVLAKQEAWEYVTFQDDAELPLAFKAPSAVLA

Escherichia coli = experiment: Antibacterial activity against Escherichia coli isolate 35 ATCC 25922; format: functional
[2] = target: T2, UDP-3-O-acyl-N-acetylglucosamine deacetylase (Pseudomonas aeruginosa (strain ATCC 15692 / PAO1 / 1C / PRS 101 / LMG12228), UniProt P47205); experiment: Inhibition of LpxC in Pseudomonas aeruginosa isolate 44 ATCC 27853
T2 sequence (P47205 whole entry): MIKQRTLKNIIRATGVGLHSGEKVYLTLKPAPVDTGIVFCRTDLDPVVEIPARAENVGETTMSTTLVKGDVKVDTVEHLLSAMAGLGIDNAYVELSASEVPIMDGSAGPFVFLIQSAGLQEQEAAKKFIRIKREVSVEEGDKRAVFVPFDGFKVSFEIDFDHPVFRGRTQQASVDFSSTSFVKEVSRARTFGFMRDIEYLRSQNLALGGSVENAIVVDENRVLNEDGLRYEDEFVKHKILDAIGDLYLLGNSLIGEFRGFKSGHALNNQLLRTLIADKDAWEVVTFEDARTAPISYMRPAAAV

Pseudomonas aeruginosa [3] = experiment: Antibacterial activity against Pseudomonas aeruginosa isolate 44 ATCC 27853; format: functional
Pseudomonas aeruginosa [4] = experiment: Antibacterial activity against Pseudomonas aeruginosa isolate 847; format: functional
Pseudomonas aeruginosa [5] = experiment: Antibacterial activity against Pseudomonas aeruginosa isolate 839 harboring mexAB-oprM deletion mutant; format: functional
[6] = Inhibition of LpxC in Klebsiella pneumoniae isolate 21 ATCC 4352
Klebsiella pneumoniae = experiment: Antibacterial activity against Klebsiella pneumoniae isolate 21 ATCC 4352; format: functional
[7] = Inhibition of LpxC in Acinetobacter baumannii focus ID 961025
Acinetobacter baumannii = experiment: Antibacterial activity against Acinetobacter baumannii focus ID 961025; format: functional
[8] = target: T2, UDP-3-O-acyl-N-acetylglucosamine deacetylase; experiment: Inhibition of LpxC in Pseudomonas aeruginosa isolate 847

SMILES | pIC50 [1] | MIC (Escherichia coli) | pIC50 [2] | MIC (Pseudomonas aeruginosa [3]) | MIC (Pseudomonas aeruginosa [4]) | MIC (Pseudomonas aeruginosa [5]) | pIC50 [6] | MIC (Klebsiella pneumoniae) | pIC50 [7] | MIC (Acinetobacter baumannii) | pIC50 [8]
CC(C)(N)[C@H](NC1COCc2cc(C#Cc3ccc(Cn4ccnc4CO)cc3)ccc21)C(=O)NO (some centres undefined) | 8.52 | 4 µg/mL (≈ 8.17 µM) | 8.30 | 4 µg/mL (≈ 8.17 µM) | 16 µg/mL (≈ 32.7 µM) | 0.5 µg/mL (≈ 1.02 µM) | – | – | – | – | –
CC(C)(N)[C@H](NC1COCc2cc(C#Cc3ccc(CN4CCOCC4)cc3)ccc21)C(=O)NO (some centres undefined) | 8.30 | 0.5 µg/mL (≈ 1.04 µM) | 8.10 | 4 µg/mL (≈ 8.36 µM) | 4 µg/mL (≈ 8.36 µM) | 0.25 µg/mL (≈ 0.522 µM) | – | – | – | – | –
C[C@@H](O)[C@H](N[C@H]1CCc2cc(C#Cc3ccc(Cn4ccnc4CO)cc3)ccc21)C(=O)NO | 8.22 | 1 µg/mL (≈ 2.17 µM) | – | 4 µg/mL (≈ 8.69 µM) | 4 µg/mL (≈ 8.69 µM) | 0.5 µg/mL (≈ 1.09 µM) | 8.40 | – | – | – | –
C[C@@H](O)[C@H](N[C@H]1CCc2cc(C#Cc3ccc(CN4CCOCC4)cc3)ccc21)C(=O)NO | 8.70 | < 0.125 µg/mL | 8.52 | 8 µg/mL (≈ 17.8 µM) | 2 µg/mL (≈ 4.45 µM) | 0.25 µg/mL (≈ 0.556 µM) | 8.70 | < 0.125 µg/mL | 7.15 | 32 µg/mL (≈ 71.2 µM) | 8.70
